The supplement of paper PMC10307832

Columns and labels:
Assay in all cases: relative viability (nuclei count vs DMSO), 5 days (fraction); higher = more cells survive
[1] = system: LCLC-103H
How it was run: (§1)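 Relative viability was taken as the ratio of nuclei in treated wells to nuclei in vehicle wells. Lung cancer cell lines in 1536-well plates received compounds by pin tool one day after seeding, either one drug alone or a fixed anchor-drug dose plus five library-drug doses (not always all listed) in √10 steps. Nuclei were counted on 4× images after 5 days of treatment, and values are medians of duplicate plates.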

[2] = system: LXF-289
How it was run: as §1

[3] = system: NCI-H1355
How it was run: as §1

[4] = system: NCI-H1563
How it was run: as §1

[5] = system: NCI-H1651
How it was run: as §1

[6] = system: NCI-H1755
How it was run: as §1

[7] = system: NCI-H1792
How it was run: as §1

[8] = system: NCI-H1915
How it was run: as §1

[9] = system: NCI-H2347
How it was run: as §1

[10] = system: NCI-H3122
How it was run: as §1

[11] = system: NCI-H322M
How it was run: as §1

[12] = system: NCI-H441
How it was run: as §1

[13] = system: NCI-H460
How it was run: as §1

[14] = system: NCI-H520
How it was run: as §1

[15] = system: NCI-H596
How it was run: as §1

[16] = system: NCI-H661
How it was run: as §1

[17] = system: NCI-H727
How it was run: as §1

[18] = system: PC-14
How it was run: as §1

[19] = system: RERF-LC-KJ
How it was run: as §1

[20] = system: SK-MES-1
How it was run: as §1

Nc1ccn([C@@H]2O[C@H](CO)[C@@H](O)[C@@H]2O)c(=O)n1 [Cytarabine] + CS(=O)(=O)N1CCN(Cc2cc3nc(-c4cccc5[nH]ncc45)nc(N4CCOCC4)c3s2)CC1 [Pictilisib] (partner 1 µM) showed a relative viability ([1]; first compound 0.005 µM) of 0.614, a relative viability ([1]; first compound 0.01581 µM) of 0.624 and a relative viability ([1]; first compound 0.05 µM) of 0.565. The relative viability ([1]; first compound 0.1581 µM) was 0.513, the relative viability ([1]; first compound 0.5 µM) was 0.617 and the relative viability ([2]; first compound 0.005 µM) was 0.716. For the same molecule, the relative viability ([2]; first compound 0.01581 µM) was 0.752, the relative viability ([2]; first compound 0.05 µM) was 0.679 and the relative viability ([2]; first compound 0.1581 µM) was 0.288. The relative viability ([2]; first compound 0.5 µM) was 0.304, the relative viability ([3]; first compound 0.005 µM) was 0.398 and the relative viability ([3]; first compound 0.01581 µM) was 0.392. It also gave a relative viability ([3]; first compound 0.05 µM) of 0.205, a relative viability ([3]; first compound 0.1581 µM) of 0.302 and a relative viability ([3]; first compound 0.5 µM) of 0.196. For the same molecule, the relative viability ([4]; first compound 0.005 µM) was 0.595, the relative viability ([4]; first compound 0.01581 µM) was 0.649 and the relative viability ([4]; first compound 0.05 µM) was 0.657. For the same molecule, the relative viability ([4]; first compound 0.1581 µM) was 0.589, the relative viability ([4]; first compound 0.5 µM) was 0.6 and the relative viability ([5]; first compound 0.005 µM) was 0.446. For the same molecule, the relative viability ([5]; first compound 0.01581 µM) was 0.522, the relative viability ([5]; first compound 0.05 µM) was 0.533 and the relative viability ([5]; first compound 0.1581 µM) was 0.17. The relative viability ([5]; first compound 0.5 µM) was 0.165, the relative viability ([6]; first compound 0.005 µM) was 0.378 and the relative viability ([6]; first compound 0.01581 µM) was 0.417. It also gave a relative viability ([6]; first compound 0.05 µM) of 0.359, a relative viability ([6]; first compound 0.1581 µM) of 0.223 and a relative viability ([6]; first compound 0.5 µM) of 0.191. The relative viability ([7]; first compound 0.005 µM) was 0.314, the relative viability ([7]; first compound 0.01581 µM) was 0.207 and the relative viability ([7]; first compound 0.05 µM) was 0.216. The relative viability ([7]; first compound 0.1581 µM) was 0.174, the relative viability ([7]; first compound 0.5 µM) was 0.188 and the relative viability ([8]; first compound 0.005 µM) was 0.866. The relative viability ([8]; first compound 0.01581 µM) was 0.853, the relative viability ([8]; first compound 0.05 µM) was 0.589 and the relative viability ([8]; first compound 0.1581 µM) was 0.274. The relative viability ([8]; first compound 0.5 µM) was 0.233, the relative viability ([9]; first compound 0.005 µM) was 0.536 and the relative viability ([9]; first compound 0.01581 µM) was 0.811. For the same molecule, the relative viability ([9]; first compound 0.05 µM) was 0.778, the relative viability ([9]; first compound 0.1581 µM) was 0.482 and the relative viability ([9]; first compound 0.5 µM) was 0.588. It also gave a relative viability ([10]; first compound 0.005 µM) of 0.629, a relative viability ([10]; first compound 0.01581 µM) of 0.494 and a relative viability ([10]; first compound 0.05 µM) of 0.61. The relative viability ([10]; first compound 0.1581 µM) was 0.329, the relative viability ([10]; first compound 0.5 µM) was 0.204 and the relative viability ([11]; first compound 0.005 µM) was 0.443. For the same molecule, the relative viability ([11]; first compound 0.01581 µM) was 0.492, the relative viability ([11]; first compound 0.05 µM) was 0.368 and the relative viability ([11]; first compound 0.1581 µM) was 0.279. The relative viability ([11]; first compound 0.5 µM) was 0.308, the relative viability ([12]; first compound 0.005 µM) was 0.481 and the relative viability ([12]; first compound 0.01581 µM) was 0.443. The relative viability ([12]; first compound 0.05 µM) was 0.411, the relative viability ([12]; first compound 0.1581 µM) was 0.205 and the relative viability ([12]; first compound 0.5 µM) was 0.223. It also gave a relative viability ([13]; first compound 0.005 µM) of 0.328, a relative viability ([13]; first compound 0.01581 µM) of 0.322 and a relative viability ([13]; first compound 0.05 µM) of 0.226. The relative viability ([13]; first compound 0.1581 µM) was 0.106, the relative viability ([13]; first compound 0.5 µM) was 0.0854 and the relative viability ([14]; first compound 0.005 µM) was 0.228. It also gave a relative viability ([14]; first compound 0.01581 µM) of 0.276, a relative viability ([14]; first compound 0.05 µM) of 0.288 and a relative viability ([14]; first compound 0.1581 µM) of 0.27. For the same molecule, the relative viability ([14]; first compound 0.5 µM) was 0.309, the relative viability ([15]; first compound 0.005 µM) was 0.432 and the relative viability ([15]; first compound 0.01581 µM) was 0.396. It also gave a relative viability ([15]; first compound 0.05 µM) of 0.355, a relative viability ([15]; first compound 0.1581 µM) of 0.277 and a relative viability ([15]; first compound 0.5 µM) of 0.315. The relative viability ([16]; first compound 0.005 µM) was 0.411, the relative viability ([16]; first compound 0.01581 µM) was 0.323 and the relative viability ([16]; first compound 0.05 µM) was 0.217. For the same molecule, the relative viability ([16]; first compound 0.1581 µM) was 0.284, the relative viability ([16]; first compound 0.5 µM) was 0.222 and the relative viability ([17]; first compound 0.005 µM) was 0.45. The relative viability ([17]; first compound 0.01581 µM) was 0.237, the relative viability ([17]; first compound 0.05 µM) was 0.211 and the relative viability ([17]; first compound 0.1581 µM) was 0.222. For the same molecule, the relative viability ([17]; first compound 0.5 µM) was 0.203, the relative viability ([18]; first compound 0.01581 µM) was 0.698 and the relative viability ([18]; first compound 0.05 µM) was 0.49. The relative viability ([18]; first compound 0.5 µM) was 0.126, the relative viability ([19]; first compound 0.005 µM) was 0.493 and the relative viability ([19]; first compound 0.01581 µM) was 0.459. It also gave a relative viability ([19]; first compound 0.05 µM) of 0.487, a relative viability ([19]; first compound 0.1581 µM) of 0.428 and a relative viability ([19]; first compound 0.5 µM) of 0.287. The relative viability ([20]; first compound 0.005 µM) was 0.333, the relative viability ([20]; first compound 0.01581 µM) was 0.305 and the relative viability ([20]; first compound 0.05 µM) was 0.227. It also gave a relative viability ([20]; first compound 0.1581 µM) of 0.194 and a relative viability ([20]; first compound 0.5 µM) of 0.205.
